We go through 18 compounds from US20150284394A1, “INHIBITORS OF BRUTON'S TYROSINE KINASE” (HOFFMANN-LA ROCHE INC., priority 2012, published 2015).

One test deals with B cells in human blood. The test can be described thus: Inhibition of B cell activation in whole blood measured by CD69 expression. Type of test: cell-based. Particulars: anti-IgM stimulation, 20 hours, CD69-positive cells that are also CD20-positive, read-out: HWB IC50. The protocol:
A procedure to test the ability of Btk inhibitors to suppress B cell receptor-mediated activation of B cells in human blood is as follows:
Human whole blood (HWB) is obtained from healthy volunteers, with the following restrictions: 24 hr drug-free, non-smokers. Blood is collected by venipuncture into Vacutainer tubes anticoagulated with sodium heparin. Test compounds are diluted to ten times the desired starting drug concentration in PBS (20×), followed by three-fold serial dilutions in 10% DMSO in PBS to produce a nine point dose-response curve. 5.5 μl of each compound dilution is added in duplicate to a 2 ml 96-well V bottom plate (Analytical Sales and Services, #59623-23); 5.5 μl of 10% DMSO in PBS is added to control and no-stimulus wells. HWB (100 μl) is added to each well, and after mixing the plates are incubated at 37 C, 5% CO2, 100% humidity for 30 minutes. Goat F(ab′)2 anti-human IgM (Southern Biotech, #2022-14) (10 μl of a 500 μg/ml solution, 50 μg/ml final concentration) is added to each well (except the no-stimulus wells) with mixing and the plates are incubated for an additional 20 hours.
At the end of the 20 hour incubation, samples are incubated with florescent-probe-labeled anti-bodies (15 μl PE Mouse anti-Human CD20, BD Pharmingen, #555623, and/or 20 ul APC Mouse anti-Human CD69, BD Pharmingen #555533) for 30 minutes, at 37 C, 5% CO2, 100% humidity. Included are induced control, unstained and single stains for compensation adjustments and initial voltage settings. Samples are then lysed with 1 ml of 1× Pharmingen Lyse Buffer (BD Pharmingen #555899), and plates are centrifuged at 1800 rpm for 5 minutes. Supernatants are removed via suction and the remaining pellets are lysed again with another 1 ml of 1× Pharmingen Lyse Buffer, and plates are spun down as before. Supernatants are aspirated and remaining pellets are washed in FACs buffer (PBS+1% FBS). After a final spin, the supernantants are removed and pellets are resuspended in 180 μl of FACs buffer. Samples are transferred to a 96 well plate suitable to be run on the HTS 96 well system on the BD LSR II flow cytometer.
Using appropriate excitation and emission wavelengths for the fluorophores used, data are acquired and percent positive cell values are obtained using Cell Quest Software. Results are initially analyzed by FACS analysis software (Flow Jo). […] The IC50 values are calculated using XLfit software version 3, equation 201.

The target in another test is Bruton's Tyrosine Kinase (Homo sapiens, UniProt Q06187). In words: Bruton's Tyrosine Kinase (BTK) Inhibition TR-FRET competition assay. Type of test: binding. Particulars: inactivated state of BTK; Kinase Tracer 178; 18-24 h at 14° C. As for the experimental part: This BTK competition assay measures compound potency (IC50) for the inactivated state of Bruton's Tyrosine Kinase using FRET (Forster/Fluorescence Resonance Energy Transfer) technology. The BTK-Eu complex was incubated on ice one hour prior to use at a starting concentration of 50 nM BTK-Bioease™: 10 nM Eu-streptavidin (Perkin-Elmer Catalog# AD0062). The assay buffer consisted of 20 mM HEPES (pH 7.15), 0.1 mM DTT, 10 mM MgCl2, 0.5 mg/ml BSA with 3% Kinase Stabilizer (Fremont Biosolutions, Catalog # STB-K02). After 1 h, the reaction mixture from above was diluted 10 fold in assay buffer to make 5 nM BTK: 1 nM Eu-Streptavidin complex (donor fluorophore). […] of a mixture of 0.11 nM BTK-Eu and 0.11 nM Kinase Tracer 178 (Invitrogen, Catalog # PV5593,) with BTK-Eu alone as no negative control, was then dispensed into 384-well flat bottom plates (Greiner, 784076). Compounds to be tested in assay were prepared as 10× concentrations and serial dilution in half-log increments was performed in DMSO so as to generate 10 point curves. To initiate the FRET reaction, compounds prepared as 10× stock in DMSO was added to the plates and the plates were incubated 18-24 h at 14° C.
After the incubation the plates were read on a BMG Pherastar Fluorescent plate reader (or equivalent) and used to measure the emission energy from the europium donor fluorophore (620 nm emission) and the FRET (665 nm emission). The negative control well values were averaged to obtain the mean minimum. The positive “no inhibitor” control wells were averaged to obtain the mean maximum. Percent of maximal FRET was calculated using following equation:
% max FRET=100×[(FSRcmpd−FSRmean min)/(FSRmean max−FSRmean min)]
where FSR=FRET Signal ratio. % Max FRET curves were plotted in Activity Base (Excel) and the IC50(%), hill slope, z′ and % CV were determined. The mean IC50 and standard deviation will be derived from duplicate curves (singlet inhibition curves from two independent dilutions) using Microsoft Excel.
In general terms: Time-resolved FRET reads energy transfer from a long-lived donor to a nearby acceptor.

Structures are written as SMILES.

Chain of Bruton's Tyrosine Kinase (Q06187 whole entry): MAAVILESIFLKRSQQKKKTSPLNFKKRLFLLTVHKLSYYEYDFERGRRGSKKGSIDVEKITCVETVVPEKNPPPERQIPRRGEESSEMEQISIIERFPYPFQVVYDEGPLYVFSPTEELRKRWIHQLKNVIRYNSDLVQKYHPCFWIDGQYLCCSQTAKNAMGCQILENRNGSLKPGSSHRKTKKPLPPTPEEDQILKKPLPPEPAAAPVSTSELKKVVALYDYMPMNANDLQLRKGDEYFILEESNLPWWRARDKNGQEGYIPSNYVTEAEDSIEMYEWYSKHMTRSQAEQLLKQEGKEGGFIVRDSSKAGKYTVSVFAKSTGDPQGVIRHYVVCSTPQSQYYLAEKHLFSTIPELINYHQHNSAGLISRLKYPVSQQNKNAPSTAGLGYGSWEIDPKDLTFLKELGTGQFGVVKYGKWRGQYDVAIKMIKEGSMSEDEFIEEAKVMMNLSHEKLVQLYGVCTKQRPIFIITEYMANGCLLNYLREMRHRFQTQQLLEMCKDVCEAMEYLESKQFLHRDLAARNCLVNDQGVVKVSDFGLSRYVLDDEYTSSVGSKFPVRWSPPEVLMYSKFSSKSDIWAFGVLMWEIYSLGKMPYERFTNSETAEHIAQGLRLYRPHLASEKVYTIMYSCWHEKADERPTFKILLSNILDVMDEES

With `Cn1cc(-c2cc3c(-c4ccc(CNC(=O)c5ccc(C(C)(C)C)cc5)cc4)ncnc3[nH]2)cn1` [Compound I-21, 4-tert-Butyl-N-{4-[6-(1-methyl-1H-pyrazol-4-yl)-7H-pyrrolo[2,3-d]pyrimidin-4-yl]-benzyl}-benzamide], the results for the IC50 in the test on B cells in human blood and on Bruton's Tyrosine Kinase were 1400 nM and 7 nM, respectively.

On to `Cn1cc(-c2cc3c(-c4ccc(CNC(=O)c5ccc(C6(C)COC6)cc5)cc4)ncnc3[nH]2)cn1` [Compound I-25, 4-(3-Methyl-oxetan-3-yl)-N-{4-[6-(1-methyl-1H-pyrazol-4-yl)-7H-pyrrolo[2,3-d]pyrimidin-4-yl]-benzyl}-benzamide], for which the values for the IC50 in the test with B cells in human blood and on Bruton's Tyrosine Kinase were 28900 nM and 44 nM, respectively.

For `Cn1cc(-c2cc3c(-c4ccc(CNC(=O)N5CC(OC(C)(C)C)C5)c(F)c4)ncnc3[nH]2)cn1` [Compound I-40, 3-tert-Butoxy-azetidine-1-carboxylic acid 2-fluoro-4-[6-(1-methyl-1H-pyrazol-4-yl)-7H-pyrrolo[2,3-d]pyrimidin-4-yl]-benzylamide], the IC50 (in general, the concentration that gives 50% inhibition) is 52 nM in the test on B cells in human blood and 0.6 nM at Bruton's Tyrosine Kinase.

As to `Cn1cc(-c2cc3c(-c4ccc(CNC(=O)c5cc6n(n5)CCCC6)c(F)c4)ncnc3[nH]2)cn1` [Compound I-47, N-(2-fluoro-4-(6-(1-methyl-1H-pyrazol-4-yl)-7H-pyrrolo[2,3-d]pyrimidin-4-yl)benzyl)-4,5,6,7-tetrahydropyrazolo[1,5-a]pyridine-2-carboxamide], the IC50 turned out to be 674 nM in the test on B cells in human blood and 3.2 nM at Bruton's Tyrosine Kinase.

As to `CN(Cc1ccc(-c2ncnc3[nH]c(-c4cnn(C)c4)cc23)cc1F)C(=O)c1ccc(C(C)(C)C)cc1` [Compound I-31, 4-tert-Butyl-N-{2-fluoro-4-[6-(1-methyl-1H-pyrazol-4-yl)-7H-pyrrolo[2,3-d]pyrimidin-4-yl]-benzyl}-N-methyl-benzamide], the IC50 in the test with B cells in human blood came to 6050 nM; at Bruton's Tyrosine Kinase it was 20 nM.

For `CN(C)CCn1cc(-c2cc3c(-c4ccc(CNC(=O)c5ccc(C(C)(C)C)cc5)c(F)c4)ncnc3[nH]2)cn1` [Compound I-42, 4-tert-Butyl-N-(4-{6-[1-(2-dimethylamino-ethyl)-1H-pyrazol-4-yl]-7H-pyrrolo[2,3-d]pyrimidin-4-yl}-2-fluoro-benzyl)-benzamide], the IC50 worked out at 230 nM in the test on B cells in human blood and 0.5 nM at Bruton's Tyrosine Kinase.

Consider `Cn1cc(-c2cc3c(-c4ccc(CNC(=O)c5ccc(C(C)(C)C)nc5)c(F)c4)ncnc3[nH]2)cn1` [Compound I-28, 6-tert-Butyl-N-{2-fluoro-4-[6-(1-methyl-1H-pyrazol-4-yl)-7H-pyrrolo[2,3-d]pyrimidin-4-yl]-benzyl}-nicotinamide], for which the IC50 amounted to 2540 nM with B cells in human blood and 4 nM on Bruton's Tyrosine Kinase.

As to `CC(C)(C)c1ccc(C(=O)NCc2ccc(-c3ncnc4[nH]c(-c5cnn(CCO)c5)cc34)cc2F)cc1` [Compound I-30, 4-tert-Butyl-N-(2-fluoro-4-{6-[1-(2-hydroxy-ethyl)-1H-pyrazol-4-yl]-7H-pyrrolo[2,3-d]pyrimidin-4-yl}-benzyl)-benzamide], the IC50 in the test with B cells in human blood is 1040 nM; at Bruton's Tyrosine Kinase, 0.7 nM.

In the case of `Cn1cc(-c2cc3c(-c4ccc(CNC(=O)c5ccc(C(C)(C)C#N)cc5)c(F)c4)ncnc3[nH]2)cn1` [Compound I-36, 4-(Cyano-dimethyl-methyl)-N-{2-fluoro-4-[6-(1-methyl-1H-pyrazol-4-yl)-7H-pyrrolo[2,3-d]pyrimidin-4-yl]-benzyl}-benzamide], the IC50 in the test on B cells in human blood stood at 6740 nM; on Bruton's Tyrosine Kinase it was 4 nM.

In the case of `Cn1cc(-c2cc3c(-c4ccc(CN5Cc6cc(C(C)(C)C)sc6C5=O)c(F)c4)ncnc3[nH]2)cn1` [Compound I-33, 2-tert-Butyl-5-{2-fluoro-4-[6-(1-methyl-1H-pyrazol-4-yl)-7H-pyrrolo[2,3-d]pyrimidin-4-yl]-benzyl}-4,5-dihydro-thieno[2,3-c]pyrrol-6-one], the figures for the IC50 with B cells in human blood and at Bruton's Tyrosine Kinase were 129 nM and 1 nM, respectively.

As to `Cn1cc(-c2cc3c(-c4ccc(CNC(=O)c5cc(C(C)(C)C)no5)c(F)c4)ncnc3[nH]2)cn1` [Compound I-39, 3-tert-Butyl-isoxazole-5-carboxylic acid 2-fluoro-4-[6-(1-methyl-1H-pyrazol-4-yl)-7H-pyrrolo[2,3-d]pyrimidin-4-yl]-benzyl amide], the IC50 with B cells in human blood turned out to be 28 nM; on Bruton's Tyrosine Kinase, 0.2 nM.

For the compound `CCOC(=O)Cn1cc(-c2cc3c(-c4ccc(CNC(=O)c5ccc(C(C)(C)C)cc5)c(F)c4)ncnc3[nH]2)cn1` [Compound I-45, [4-(4-{4-[(4-tert-Butyl-benzoylamino)-methyl]-3-fluoro-phenyl}-7H-pyrrolo[2,3-d]pyrimidin-6-yl)-pyrazol-1-yl]-acetic acid ethyl ester], the results for the IC50 with B cells in human blood and on Bruton's Tyrosine Kinase were 222 nM and 0.6 nM, respectively.

Take `Cn1cc(-c2cc3c(-c4ccc(CNC(=O)N5Cc6ccccc6C5)c(F)c4)ncnc3[nH]2)cn1` [Compound I-41, 1,3-Dihydro-isoindole-2-carboxylic acid 2-fluoro-4-[6-(1-methyl-1H-pyrazol-4-yl)-7H-pyrrolo[2,3-d]pyrimidin-4-yl]-benzylamide]: the IC50 with B cells in human blood came to 154 nM; at Bruton's Tyrosine Kinase it was 0.6 nM.

With `Cn1cc(-c2cc3c(-c4ccc(CNC(=O)c5ccc(C(C)(C)O)cc5)c(F)c4)ncnc3[nH]2)cn1` [Compound I-38, N-{2-Fluoro-4-[6-(1-methyl-1H-pyrazol-4-yl)-7H-pyrrolo[2,3-d]pyrimidin-4-yl]-benzyl}-4-(1-hydroxy-1-methyl-ethyl)-benzamide], the IC50 was found to be 3270 nM in the test with B cells in human blood and 3 nM on Bruton's Tyrosine Kinase.

Consider `Cc1ccc(C(=O)NCc2ccc(-c3ncnc4[nH]c(-c5cnn(C)c5)cc34)cc2F)s1` [Compound I-29, 5-Methyl-thiophene-2-carboxylic acid 2-fluoro-4-[6-(1-methyl-1H-pyrazol-4-yl)-7H-pyrrolo[2,3-d]pyrimidin-4-yl]-benzylamide], for which the results for the IC50 in the test with B cells in human blood and at Bruton's Tyrosine Kinase were 470 nM and 3 nM, respectively.

As to `Cn1cc(-c2cc3c(-c4ccc(CNC(=O)c5ccc(C6(C)COC6)cc5)c(F)c4)ncnc3[nH]2)cn1` [Compound I-35, N-{2-Fluoro-4-[6-(1-methyl-1H-pyrazol-4-yl)-7H-pyrrolo[2,3-d]pyrimidin-4-yl]-benzyl}-4-(3-methyl-oxetan-3-yl)-benzamide], the IC50 in the test on B cells in human blood came to 5500 nM; at Bruton's Tyrosine Kinase it was 8 nM.

Take `Cn1cc(-c2cc3c(-c4ccc(CNC(=O)c5cc6c(s5)CCCC6)c(F)c4)ncnc3[nH]2)cn1` [Compound I-37, 4,5,6,7-Tetrahydro-benzo[b]thiophene-2-carboxylic acid 2-fluoro-4-[6-(1-methyl-1H-pyrazol-4-yl)-7H-pyrrolo[2,3-d]pyrimidin-4-yl]-benzylamide]: the IC50 stood at 655 nM in the test with B cells in human blood and 0.3 nM at Bruton's Tyrosine Kinase.

In the case of `Cn1cc(-c2cc3c(-c4ccc(CNC(=O)c5cc(C(C)(C)C)on5)c(F)c4)ncnc3[nH]2)cn1` [Compound I-34, 5-tert-Butyl-isoxazole-3-carboxylic acid 2-fluoro-4-[6-(1-methyl-1H-pyrazol-4-yl)-7H-pyrrolo[2,3-d]pyrimidin-4-yl]-benzylamide], the figures for the IC50 in the test with B cells in human blood and on Bruton's Tyrosine Kinase were 76 nM and 0.2 nM, respectively.
